Data on 19 compounds can be found in patent US9346823B2, “Detection and use of low molecular-weight modulators of the cold-menthol receptor TRPM8” (BASF SE, priority 2008, dated 2016).

Molecules are shown by their SMILES.

This assay has as its target T1, human receptor TRPM8 (Homo sapiens, UniProt Q7Z2W7).
T1 construct: expressed in transfected cells
The assay is described as follows: Assay on TRPM8 modulators: Ca2+-sensitive dye (Fluo-4) fluorescence in HEK293 cells stably transfected with human TRPM8. In kind it is cell-based. The settings on record: tetracycline-induced, Fluo-4AM, agonist mode, triplicate, test concentrations 0.1-200 μM. Here is the method: In this connection, “standard conditions” is understood as meaning an activity test carried out with HEK293 cells which have been transformed with human TRPM8 and loaded with calcium-sensitive dye (such as e.g. Fluo-4AM, i.e. fluo-4-acetoxymethyl ester), subsequent addition of the test compound and detection of the color change, the experimental procedure taking place at 37° C.; as described e.g. example 3 below, or in Behrendt et al. (2004) loc. cit.).
As test cell system, HEK293 cell line stably transfected with the human TRPM8 DNA (cf. above plasmid pind-M8) are produced. Preference here is given to HEK293 which offers the option, via the introduced plasmid, of inducing the TRPM8 expression by means of tetracycline.
The agonization or antagonization of the receptor can be quantified by means of a Ca^2+-sensitive dye (e.g. FURA, Fluo-4 etc.). On their own, agonists bring about an increase in the Ca^2+ signal; antagonists bring about, in the presence of e.g. menthol, a reduction in the Ca^2+ signal (in each case detected via the dye Fluo-4, which has different fluorescent properties as the result of Ca^2+ ). • a) Test Procedure:
Firstly, a fresh culture of transformed HEK cells is prepared in a manner known per se in cell culture flasks. The test cells HEK293-TRPM8 are detached from the cell culture flasks by means of trypsin and 40 000 cells/well are sown out with 100 μl of medium in 96-well plates (Greiner # 655948 poly-D-lysine-coated). To induce the receptor TRPM8, tetracycline is added to the growth medium (DMEM/HG, 10% FCS tetracycline-free, 4 mM L-glutamine, 15 μg/ml blasticidin, 100 μg/ml hygromycin B, 1 μg/ml tetracycline). On the following day, the cells are loaded with Fluo-4AM dye and the test is carried out. For this, the procedure is as follows: • addition of in each case 100 μl/well of dye solution Ca-4 kit (RB 141, Molecular Devices) to in each case 100 μl of medium (DMEM/HG, 10% FCS tetracycline-free, 4 mM L-glutamine, 15 μg/ml blasticidin, 100 μg/ml hygromycin B, 1 μg/ml tetracycline) • incubation in the hatching cabinet, 30 minutes/37° C./5% CO2, 30 minutes/RT • preparation of the test substances (various concentrations in 200 μl of HBSS buffer), and also of positive controls (various concentrations of menthol, icilin and ionomycin in 200 μl of HBSS buffer) and negative controls (only 200 μl of HBSS buffer) • addition of the test substances in amounts of 50 μl/well and measurement of the change in fluorescence (e.g. in the assay instrument FLIPR, Molecular Devices or NovoStar, BMG) at 485 nm excitation, 520 nm emission, and evaluation of the effectiveness of the various substances/concentrations and determination of the EC50 values.
The test substances are used in the assay in triplicate in concentrations of 0.1-200 μM. Normally, the compounds are kept ready in DMSO solutions and are diluted down to a maximum DMSO concentration of 2% for the assay. • b) Test Result

T1 sequence (Q7Z2W7 whole entry): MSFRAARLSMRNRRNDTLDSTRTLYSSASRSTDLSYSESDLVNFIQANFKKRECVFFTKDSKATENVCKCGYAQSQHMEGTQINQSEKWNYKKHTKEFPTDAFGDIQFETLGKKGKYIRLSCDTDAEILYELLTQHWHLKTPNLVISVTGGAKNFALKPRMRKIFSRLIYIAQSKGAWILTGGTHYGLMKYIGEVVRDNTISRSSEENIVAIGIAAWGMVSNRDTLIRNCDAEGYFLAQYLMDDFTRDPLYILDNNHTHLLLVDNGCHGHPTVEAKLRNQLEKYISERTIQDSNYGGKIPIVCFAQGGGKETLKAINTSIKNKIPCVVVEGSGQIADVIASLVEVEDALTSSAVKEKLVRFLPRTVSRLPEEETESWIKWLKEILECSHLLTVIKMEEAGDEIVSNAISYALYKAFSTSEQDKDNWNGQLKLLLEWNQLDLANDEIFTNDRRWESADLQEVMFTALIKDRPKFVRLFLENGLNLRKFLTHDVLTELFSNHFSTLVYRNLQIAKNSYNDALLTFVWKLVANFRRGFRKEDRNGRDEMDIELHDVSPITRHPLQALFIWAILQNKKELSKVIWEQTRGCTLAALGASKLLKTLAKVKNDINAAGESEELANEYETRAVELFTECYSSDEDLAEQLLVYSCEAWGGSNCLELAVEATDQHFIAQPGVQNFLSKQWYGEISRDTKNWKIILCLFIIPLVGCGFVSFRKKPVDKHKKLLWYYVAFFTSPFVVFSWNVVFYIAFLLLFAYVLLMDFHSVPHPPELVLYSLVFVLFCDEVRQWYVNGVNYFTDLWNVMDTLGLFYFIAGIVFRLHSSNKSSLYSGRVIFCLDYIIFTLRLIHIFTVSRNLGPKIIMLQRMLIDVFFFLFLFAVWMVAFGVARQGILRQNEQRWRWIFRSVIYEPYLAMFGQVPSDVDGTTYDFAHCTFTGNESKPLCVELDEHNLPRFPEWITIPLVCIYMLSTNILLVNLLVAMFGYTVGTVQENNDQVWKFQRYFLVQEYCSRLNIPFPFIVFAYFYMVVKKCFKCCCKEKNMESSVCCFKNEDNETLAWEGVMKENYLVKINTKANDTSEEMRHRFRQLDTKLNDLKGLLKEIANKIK

In general, EC50 refers to the concentration that produces a half-maximal response. `CCCCCCNC(=O)N(Cc1ccccc1)c1ccccc1` [Compound 7]: a half-maximal effect (EC50) was put at 4 µM. Under `CC1=C/C(=N\NC(=O)CCN2CCN(c3ccccc3)CC2)CC1` [Compound 18] stands 100 µM; under `CCOC(=O)C1CCN(Cc2cc(C(C)C)c(O)c(C(C)C)c2)CC1` [Compound 14], 20 µM. As for `O=C(Nc1ccc([N+](=O)[O-])cc1)Nc1ccccc1N1CCCCC1` [Compound 6], the figure is 3.5 µM; as for `Cc1ccc2c(C)c(C(=O)N(Cc3ccco3)C3CCS(=O)(=O)C3)oc2c1` (stereo not shown) [Compound 15], 20 µM; as for `Cc1[nH]c(SC(C)C(=O)Nc2cccc(C#N)c2)nc1Cc1ccccc1` (stereo not shown) [Compound 8], 5 µM.

`CC1OC(=O)C2=C1N1CCc3ccccc3C1CC21SCCS1` (stereo not shown) [Compound 1]: the EC50 stood at 0.4 µM. Under `CC1(C)CC2CC(C)(CN2/C=N/c2sc3c(c2C#N)CCCCC3)C1` (stereo not shown) [Compound 10] stands 10 µM; under `C=C1C2(C(=O)NCCc3ccccc3)CCC(C2)C1(C)C` (stereo not shown) [Compound 19], 100 µM. Under `C=CCn1c(C)cc(C(=O)CSc2nc(C)cc(C(F)(F)F)c2C#N)c1C` [Compound 16] stands 25 µM; under `O=C(Nc1cccc2ccccc12)N(Cc1ccccc1)c1ccccc1` [Compound 11], 10 µM; under `COc1ccc(C(=O)Nc2sc3c(c2CN(C)C)CCCC3)cc1` [Compound 12], 10 µM.

Regarding `O=C(COc1ccc2c(c1)OCO2)N(c1ccccc1)C1CCCCC1` [Compound 4], the EC50 was found to be 2.5 µM.

Regarding `Cn1nc(C(F)(F)F)cc1Oc1cc(C2OCCO2)cc(Cl)n1` [Compound 17], the EC50 turned out to be 50 µM. On to `O=C1CN(C(=O)c2ccccc2)c2ccc(C(F)(F)F)cc2N1` [Compound 9], for which the EC50 stood at 10 µM.

`CC(NCc1ccc(OC(F)F)cc1)c1ccc2c(c1)CCCC2` (stereo not shown) [Compound 13] had an EC50 of 10 µM. As for `CC1(C)CC(=O)C2=C(C1)N1CCc3ccccc3C1CC21SCCS1` (stereo not shown) [Compound 2], the figure is 2 µM. As for `O=C(/C=C/c1ccc2c(c1)OCO2)N(c1ccccn1)C1CCCCC1` [Compound 5], the figure is 2.5 µM; as for `COc1cnc(-c2ccccn2)nc1NC(C)C` [Compound 3], 2 µM.
